# Experimental data: ChEMBL document CHEMBL1201862, “PubChem BioAssay data set” (2004)
#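 Assay format: 96-well plates, 48-hour exposure. GI50 = concentration required for 50% inhibition of growth.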 Active and inactive are the calls of the source. Cut-off read from the data, not from the text of the source: active = GI50 up to about 1.1 µM and inactive = higher.
# How the values were obtained:
# Experiment in all cases: inhibition of tumour cell growth, NCI panel, 48 h
# [1] = tested on: MDA-N
# [2] = tested on: NCI-H23
# [3] = tested on: UO-31
# [4] = tested on: MOLT-4
# [5] = tested on: SK-MEL-28
# [6] = tested on: OVCAR-4
# [7] = tested on: NCI-H226
# [8] = tested on: HCT-116
# [9] = tested on: SF-268
# [10] = tested on: SW-620
# [11] = tested on: OVCAR-3
# [12] = tested on: HCC 2998
# [13] = tested on: SNB-19
# [14] = tested on: RPMI-8226
# [15] = tested on: UACC-257
# [16] = tested on: ACHN
# [17] = tested on: SK-MEL-5
# [18] = tested on: MDA-MB-435
# [19] = tested on: COLO 205
SMILES,GI50 [1],GI50 [2],GI50 [3],GI50 [4],GI50 [5],GI50 [6],GI50 [7],GI50 [8],GI50 [9],GI50 [10],GI50 [11],GI50 [12],GI50 [13],GI50 [14],GI50 [15],GI50 [16],GI50 [17],GI50 [18],GI50 [19]
COC1(C)CP(=O)(OC(C)C)CC(C)=C1Cl (stereo not drawn),13.2 µM (inactive),10.7 µM (inactive),17.8 µM (inactive),22.2 µM (inactive),21.7 µM (inactive),15 µM (inactive),12.5 µM (inactive),6.37 µM (inactive),32.2 µM (inactive),14.4 µM (inactive),10.7 µM (inactive),27 µM (inactive),28.4 µM (inactive),3.78 µM (inactive),16.9 µM (inactive),18.4 µM (inactive),12.4 µM (inactive),13.6 µM (inactive),14.5 µM (inactive)
Brc1ccc2c(c1)-c1nc3nc4c(cc3cc1CC2)CCc1ccc(Br)cc1-4,> 100 µM (inactive),> 100 µM (inactive),> 100 µM (inactive),> 100 µM (inactive),> 100 µM (inactive),0.47 µM (active),> 100 µM (inactive),> 100 µM (inactive),> 100 µM (inactive),> 100 µM (inactive),> 100 µM (inactive),> 100 µM (inactive),> 100 µM (inactive),> 100 µM (inactive),> 100 µM (inactive),> 100 µM (inactive),> 100 µM (inactive),5.65 µM (inactive),> 100 µM (inactive)
NC1CCCCC1.O=P(O)(O)C(O)/C=C/c1ccccc1 (stereo not drawn),> 100 µM (inactive),> 100 µM (inactive),> 100 µM (inactive),> 100 µM (inactive),> 100 µM (inactive),> 100 µM (inactive),> 100 µM (inactive),> 100 µM (inactive),> 100 µM (inactive),> 100 µM (inactive),> 100 µM (inactive),> 100 µM (inactive),> 100 µM (inactive),> 100 µM (inactive),> 100 µM (inactive),> 100 µM (inactive),> 100 µM (inactive),> 100 µM (inactive),> 100 µM (inactive)
COc1cc(OCc2ccc3oc(=O)c(-c4ccccc4)nc3c2)cc(OC)c1OC,> 100 µM (inactive),> 100 µM (inactive),> 100 µM (inactive),> 100 µM (inactive),> 100 µM (inactive),> 100 µM (inactive),> 100 µM (inactive),> 100 µM (inactive),> 100 µM (inactive),> 100 µM (inactive),> 100 µM (inactive),> 100 µM (inactive),> 100 µM (inactive),> 100 µM (inactive),> 100 µM (inactive),> 100 µM (inactive),> 100 µM (inactive),> 100 µM (inactive),> 100 µM (inactive)
O=c1c2ccccc2[nH]n1Cc1ccccc1,> 100 µM (inactive),> 100 µM (inactive),> 100 µM (inactive),> 100 µM (inactive),> 100 µM (inactive),> 100 µM (inactive),> 100 µM (inactive),> 100 µM (inactive),> 100 µM (inactive),> 100 µM (inactive),> 100 µM (inactive),> 100 µM (inactive),> 100 µM (inactive),> 100 µM (inactive),> 100 µM (inactive),> 100 µM (inactive),> 100 µM (inactive),> 100 µM (inactive),> 100 µM (inactive)
CCc1n[nH]c(=O)n1-n1c(C)ccc1C,> 100 µM (inactive),–,> 100 µM (inactive),> 100 µM (inactive),> 100 µM (inactive),> 100 µM (inactive),> 100 µM (inactive),> 100 µM (inactive),> 100 µM (inactive),> 100 µM (inactive),> 100 µM (inactive),> 100 µM (inactive),> 100 µM (inactive),> 100 µM (inactive),> 100 µM (inactive),> 100 µM (inactive),> 100 µM (inactive),> 100 µM (inactive),> 100 µM (inactive)
